Experimental data from patent publication US10653667B2, “Drug for preventing, treating or preventing metastasis of giant cell tumor that occurs in bone or soft parts, chondrosarcoma, or osteosarcoma, local injection for arterial embolization, and artificial bone” (NIPPON CHEMIPHAR CO., LTD, priority 2013, dated 2020).
“Also recorded” adds a separate entry of the source.

What was measured:
H-EMC-SS cells [1] = assay: Proliferation of H-EMC-SS cells cultured beforehand with PPARγ siRNA or control siRNA; assay type: cell-based, human; settings: 400 μM zaltoprofen
Protocol: Cells of the human chondrosarcoma cell line, H-EMC-SS, were cultured in the same manner as that of Example 1 until they became sub-confluent, PPARγ siRNA (Dharmacon, catalog number M-003436-02-0005) that selectively suppresses expression of PPARγ, or a control siRNA (Dharmacon, catalog number D-001206-14-05) was added to the cells at a final concentration of 100 nM, and the cells were cultured for 48 hours. Then, 400 μM zaltoprofen was added to the cells, color development was performed with Cell Counting Kit-8 (CCK-8, Dojindo) 24 hours thereafter, absorbance was measured at 450 nm further 3 hours thereafter, and the absorbance observed with the pretreatment with PPARγ siRNA was compared with the absorbance observed with the pretreatment with the control siRNA (FIG. 70).

SW1353 cells [2] = assay: Cell migration of human chondrosarcoma cell line SW1353; assay type: cell-based; settings: 72 hours
Protocol: The analysis of cell migration was performed by using a 6-well plate of TPP according to the method described in Takeuchi A, et al., Cancer Science, 104:740-749, 2013 (Low molecular weight heparin suppresses receptor for advanced glycation end products-mediated expression of malignant phenotype in human fibrosarcoma cells). Cells of the human chondrosarcoma cell line, SW1353, were cultured in the same manner as that of Example 1 until they became sub-confluent, and the cells were delaminated in a width of 1 mm using a micropipette tip (200 μl). […] Then, area of the cells migrated to the region where the cells were delaminated was measured by using Image J software (http://rsb.info.nih.gov/ij/index.html) (FIGS. 73 and 74).

H-EMC-SS cells [3] = settings: inventors' earlier reports; cited from earlier work
[4] = tested on: GCTB cultured cells (case 1, case 2); assay: Cell proliferation of GCTB cultured cells in the presence or absence of PPARγ siRNA; assay type: cell-based, human; settings: 200 μM zaltoprofen or 60 μM troglitazone; 72 hours
human PVNS cells = assay: Proliferation of human PVNS cells cultured beforehand with PPARγ siRNA or control siRNA; assay type: cell-based; settings: PPARγ siRNA 100 nM 48 hours, 100 μM rosiglitazone or 400 μM zaltoprofen
[5] = tested on: GCTB cultured cells (case 1, case 2; GCT-1, GCT-2); settings: GCTB derived from a patient; inventors' earlier reports; cited from earlier work
[6] = tested on: giant cell tumor of bone (GCTB); settings: patient who had taken zaltoprofen for four weeks at 240 mg per day; inventors' earlier reports; cited from earlier work
H-EMC-SS cells [7] = assay: Caspase 3 staining of chondrosarcoma cell line H-EMC-SS (apoptosis); assay type: cell-based, human; settings: zaltoprofen 200 μM, troglitazone 100 μM or pioglitazone 200 μM, compared with control
Protocol: Further, in the same manner as that of Example 1, cells of the chondrosarcoma cell line were subjected to caspase 3 staining, and presence or absence of apoptosis was analyzed (FIGS. 46 and 47).

SW1353 cells [8] = assay: Cell invasion of SW1353 cells (Matrigel Invasion Chamber); assay type: cell-based, human
From the text: For the analysis of cell invasion, Matrigel™ Invasion Chamber (BD Bioscience, catalog number 354480), which uses Matrigel as the matrix, was used. […] FIGS. 76 and 77 show microphotographs of invaded cells fixed by immersion into a 4% paraformaldehyde solution, and stained with hematoxylin (magnification is 200 times). From the microphotographs of FIGS. 76 and 77, the patterns of the invaded cells can be understood.

[9] = tested on: PPARγ expression in cells of pigmented villonodular synovitis (PVNS); assay: PPARγ immunostaining of PVNS cells; assay type: cell-based, human; settings: zaltoprofen 400 μM or troglitazone 200 μM
[10] = tested on: cultured cells of giant cell tumor of tendon sheath (GCTT); assay: Suppression of cell proliferation of GCTT cultured cells (CCK-8); assay type: cell-based, human; settings: drug at various concentrations, CCK-8 24 hours after addition
[11] = tested on: GCTB cultured cells (case 1, case 2; GCT-1, GCT-2); assay: Suppression of cell proliferation of GCTB cultured cells (Cell Counting Kit-8, WST assay); assay type: cell-based, human; settings: drug at various concentrations, CCK-8 24 hours after addition
Protocol: Tissue Int., 75:71-77), repeatedly subcultured until there were only spindle-shaped cells, which state was gradually attained from the state that there were also multinucleated giant cells observed in an early stage, and then used for the following analysis. […] Zaltoprofen was added as a solution in DMSO (dimethyl sulfoxide) prepared at a concentration 1000 times higher than the final concentration, and the solution was added in a volume of 0.1% of the volume of the medium. The same shall apply to the other drugs used in the following examples. […]

OUMS-27 cells = assay: Proliferation of OUMS-27 cells cultured beforehand with or without GW9662; assay type: cell-based, human; settings: GW9662 1 μM, 60 minutes beforehand
Protocol: Cells of the human chondrosarcoma cell line, OUMS-27, were cultured in the same manner as that of Example 1 until they became sub-confluent, then GW9662 (Sigma Aldrich, M6191), which is an irreversible antagonist of PPARγ, was added to the cells at a final concentration of 1 μM, and the cells were cultured for 60 minutes.

H-EMC-SS cells [12] = assay: Suppression of cell proliferation of chondrosarcoma cell line H-EMC-SS (CCK-8); assay type: cell-based, human; settings: drug at various concentrations
From the text: The H-EMC-SS cells were obtained from the Riken BioResource Center.
The H-EMC-SS cells were obtained from the Riken BioResource Center. As the SW1353 cells, those obtained from ATCC were used.

[13] = tested on: PPARγ expression in GCTB cultured cells; assay: PPARγ immunostaining of GCTB cultured cells; assay type: cell-based, human; settings: zaltoprofen 10, 50, 100, 200 μM; 24 hours; about 15% in the control
Protocol: The GCTB cultured cells of the aforementioned case 1 were cultured on chamber cover slide glass, and 24 hours thereafter, zaltoprofen was added at various concentrations (10, 50, 100, and 200 μM). After 24 hours, the cells were fixed with 4% paraformaldehyde, and immunohistochemical staining of PPARγ was performed. The PPARγ protein was fluorescently detected by using the antibody SC-7273 of Santa Cruz Biotechnology, Inc. as the primary antibody and the rat anti-mouse IgG FITC (11-4011-85) of eBioscience as the secondary antibody. Observation was performed with a fluorescence microscope (BZ-9000) of Keyence, and positive images for each concentration were quantitatively observed (FIGS. 6 and 7).

CC(C(=O)O)c1ccc2c(c1)CC(=O)c1ccccc1S2 (stereo not shown) [zaltoprofen]
suppression of proliferation of H-EMC-SS cells (H-EMC-SS cells [1]; 24 hours): suppressed proliferation | cell proliferation-suppressing action with PPARγ siRNA (H-EMC-SS cells [1]; H-EMC-SS, PPARγ siRNA 100 nM 48 hours): completely eliminated | suppression of cell migration of SW1353 cells (SW1353 cells [2]; 400 μM zaltoprofen): about 40% | suppression of cell migration of SW1353 cells (SW1353 cells [2]; all set concentrations, concentration-dependent): suppressed the cell migration | apoptosis in H-EMC-SS cells (H-EMC-SS cells [3]): induced apoptosis | cell proliferation-inhibiting effect in the PPARγ siRNA addition group [4]: significantly suppressed | cell proliferation-suppressing action with PPARγ siRNA (human PVNS cells): substantially completely eliminated | suppression of proliferation of cells of giant cell tumor of bone [5]: suppressed proliferation | giant cell tumor of bone in patient [6]: giant cell tumor of bone disappeared | caspase 3-positive ratio (H-EMC-SS cells [7]): increased | cell injury seen in microphotographs of invaded cells (SW1353 cells [8]; 100 μM troglitazone, 50 μM celecoxib or 400 μM zaltoprofen, cells only sparsely existed and rolled into small balls): cell injury was realized | cell invasion remaining (suppressed to) (SW1353 cells [8]; 400 μM zaltoprofen, 24 hours): lower than 20% | suppression of cell invasion of SW1353 cells (SW1353 cells [8]; all set concentrations, concentration-dependent, 24 hours): suppressed the cell invasion | expression of PPARγ (PPARγ-positive images) [9]: expression of PPARγ was successfully observed | suppression of cell proliferation (absorbance at 450 nm) [10]: cell proliferation was suppressed | suppression of cell proliferation (live cell count, absorbance at 450 nm) [11]: concentration-dependent suppression of the cell proliferation; also recorded: suppressed proliferation | cell proliferation-suppressing action after preincubation with GW9662 (OUMS-27 cells): reduced by GW9662 | suppression of cell proliferation (absorbance at 450 nm) (H-EMC-SS cells [12]): cell proliferation was suppressed | expression of PPARγ (ratio of PPARγ-positive cells) [13]: increased in a zaltoprofen concentration-dependent manner
